According to patent US20110064773A1, “PHARMACEUTICAL COMPOSITIONS COMPRISING A THYROID HORMON AND THEIR THERAPEUTIC USE” (UNIVERSITE JOSEPH FOURIER, priority 2007, published 2011):

Experiments:
Wistar rats [1] = experiment: Indirect calorimetry (energy expenditure, respiratory quotient) of Wistar rats; assay type: in vivo, rat; settings: 25 μg/100 g BW pellet, vs placebo
Text: Energy expenditure as well as the nature of substrate oxidized (carbohydrates or lipids) were investigated by indirect calorimetry. This principle is based on the determinations of CO2 release (VCO2) and O2 consumption (VO2) by each animal. It assumes that O2 is entirely involved in substrate oxidation in the respiratory chain (leading to water production) while CO2 release is related to substrate decarboxylation (in the Krebs' cycle). These measurements allow assessing energy expenditure (EE) and respiratory quotient ([…], RQ). EE represent the absolute energy dissipation during rest and activity. RQ is a relative measurement indicating the ratio of carbohydrate versus lipid involved in oxidative pathway. A ratio of 1.0 indicates exclusive carbohydrate oxidation while a ratio of 0.7 indicates exclusive lipid oxidation. Each value between these two extreme values indicates the relative proportion of each substrate (of note protein oxidation was not evaluated). As an example, RQ approaches 0.7 during fasting, indicating lipid oxidation, conversely after feeding RQ increases close to 1 indicating carbohydrate oxidation resulting from food intake and blood insulin rise. Likewise, animals fed high-carbohydrate diets have higher RQs than those fed high-fat diets.
The indirect calorimetry system (Panlab, Barcelona, Spain) consists of cages, pumps, flow controllers, valves, and analyzers. It is computer-controlled in order to sequentially measure O2 and CO2 concentrations as well as air flow in four separate cages allowing four simultaneous determinations. Rats are isolated in one of the four metabolic chambers, and room air is used as a reference to monitor ambient O2 and CO2 concentrations periodically.
At predefined intervals, the computer sends a signal to store differential CO2 and O2 concentrations, flow rate, allowing computing VCO2, VO2, RQ, and EE (Weir equation) with data acquisition hardware (Metabolism, Panlab, Barcelona, Spain).

Wistar rats [2] = experiment: Growth rate (body weight) and food intake of Wistar rats; assay type: in vivo, rat
Procedure: Adult male rat bred in the animal room facilities of Laboratory of Fundamental and Applied Bioenergetics (Wistar strain) or purchased from Charles-River Laboratories, Domaine des oncins, L'ARBRESLE France [(genetically obese normoglycemic (Zucker or Fa/Fa) or diabetic (ZDF)] were caged individually in stainless steel hanging cages and maintained in a 22° C., 50±10% relative humidity and 12 h:12 h light:dark environment. All animals were fed ad libitum with a standard rat chow (Safe A04, Villemoisson, France) and tap water. Body mass and food intake were recorded twice/thrice a week and fresh food was provided at the same time to ensure minimal disturbance to the animals' food behavior.
Eight-week old rats (300 g±10 g) were anesthetized by simultaneous intraperitoneal injection of diazepam 4 mg/kg and ketamine 100 mg/kg. In order to maintain body temperature during the surgery (10 min), animals were placed on a warm blanket. After interscapular shaving, a small incision of 0.5 cm of the skin allows the subcutaneous implantation of a small pellet (containing rT3 or 3′,3-T2) with a 10-gauge precision trochar. The pellets, manufactured by Innovative Research of America (Sarasota, Fla., USA) are constituted of a biodegradable matrix that effectively and continuously release the active product in the animal.
[…] (reverseT3) or 3-3′ diiodothyronine (3-3′ T2) were used at different doses (5, 0.5, or 0.1 mg/pellet) were implanted in order to provide a continuous and constant drug delivery over 60 days (which represents 25 μg, 2.5 μg or 0.5 μg/day/100 g BW).
Wistar rats were treated with rT3 hormone by a daily intraperitoneal injection (IP) (25 μg/100 g BW), a daily sub-cutaneous injection (SC) (25 μg/100 g BW), or a per os administration included in the rat food (25 μg/100 g BW). The continuous and constant administration was performed by using a pellet (25 μg/100 g BW).
However the role of the administration site was further investigated by comparing continuous administration of rT3 by osmotic pump implanted either subcutaneously or intraperitonally with the reference treatment administered by sub-cutaneous pellets. Wistar rats were treated for 21 days with placebo, sub-cutaneous pellet or sub-cutaneous or intraperitoneal osmotic pumps. rT3 was administered continuously (2.5 μg/100 g).
Wistar rats were treated by a continuous and constant administration of low doses of rT3 by 3 different methods of administration: • a sub-cutaneous pellet, • an osmotic pump placed under the skin, and • an osmotic pump placed in the peritoneal cavity.

liver mitochondria = experiment: Rate of liver mitochondrial oxygen consumption (JO2) of treated Wistar rats; assay type: in vivo, rat; settings: high dose 250 μg/kg BW/day, various substrates, vs placebo
Procedure: (§1) The major part of the liver and the red part of each quadriceps were rinsed, and chopped into isolation medium (250 mM sucrose, 20 mM Tris-HCl and 1 mM EGTA-Tris, pH 7.4). Nuclei and cell debris were removed by centrifugation at 800 g for 10 min. Mitochondria were then isolated from the supernatant by spinning twice at 8,000 g for 10 minutes. The mitochondrial pellet was resuspended in 0.5 ml of isolation buffer and kept on ice. Mitochondrial protein was measured by the bicinchoninic acid method (Pierce, Rockford, Ill.). The final mitochondrial suspensions were maintained on ice and were used for measurements of oxygen consumption rate.
(§2) The rate of mitochondrial oxygen consumption (JO2) was measured at 30° C. in an incubation chamber with a Clark-type O2 electrode filled with 2 ml of incubation medium (125 mM KCl, 10 mM Pi-Tris, 20 mM Tris-HCl, 0.1 mM EGTA, pH 7.2). All measurements were performed using mitochondria (1.0 or 0.2 mg mitochondrial protein/ml for liver and skeletal muscle) incubated either with various substrates: glutamate/malate (5 mM/2.5 mM) and succinate (5 mM), alone or in combination, palmitoyl carnitine (55 μM) and octanoyl carnitine (100 μM). For each substrate, JO2 was recorded in the presence of the substrate alone (State 2) and following the addition of 1 mM ADP (state 3). Oligomycin (1.25 μg/mg protein) was added to the mitochondrial suspension to determine the non-phosphorylating respiratory rate (state 4). The incubation medium was constantly stirred with a built-in electromagnetic stirrer and bar flea. The efficiency of the mitochondrial oxidative phosphorylation was assessed by the state 3/state 4 ratio which measures the degree of control imposed on oxidation by phosphorylation (respiratory control ratio, RCR).

muscle mitochondria = experiment: Rate of muscle mitochondrial oxygen consumption (JO2) of treated Wistar rats; assay type: in vivo, rat; settings: 250 μg/kg BW/day, vs placebo
Procedure: as §1, §2

Wistar rats [3] = experiment: Plasma concentrations of glucose, triglycerides, cholesterol, FFA and HDL in Wistar rats; assay type: in vivo, rat; settings: day of sacrifice, vs placebo
Text: These measurements were done on venous blood of the rats the day of the sacrifice.
(§3) At the end of the experimental period, animals were sacrificed by decapitation, in order to avoid the well-known effects of general anesthetics on mitochondrial metabolism. Blood samples were immediately collected and plasma was frozen for subsequent determination of serum metabolites and hormones. Liver, muscles and fat depots were quickly excised and weighed. Liver median lobe was rapidly freeze-clamped. Muscles (plantaris, soleus and gastrocnemius) were frozen in isopentane precooled in liquid nitrogen. Mesenteric fat consisted of adipose tissue surrounding the gastro-intestinal tract from the gastro-oesophageal sphincter to the end of the rectum with special care taken in distinguishing and removing the pancreas. Retroperitoneal fat pad was taken as the distinct depot behind each kidney along the lumbar muscles. Epididymal fat consisted of adipose tissue on top of the epididymis. For subcutaneous depot measurement, a rectangular piece of skin was taken on the right side of each animal from the median line of the abdomen between the spine and the right hip to the first rib. Interscapular brown adipose tissue was removed and dissected free from adjacent muscles and white adipose tissue. The heart ventricles, the right kidney and the spleen were also excised, weighed and frozen.
Glucose and 3-hydroxybutyrate (3-HB) were measured enzymatically and non esterified fatty acid (NEFA) by colorimetric assay (Wako Chemicals).
Triglycerides and cholesterol were measured by classical routine automate apparatus.

Wistar rats [4] = experiment: Body composition (adipose tissues, skeletal muscles, brown adipose tissue) of Wistar rats; assay type: in vivo, rat; settings: three weeks, vs placebo
Text: as §3

[5] = test system: nuclear receptors of the thyroid hormones, TRα-1 and TRβ-1; settings: literature statements; cited from earlier work
[6] = test system: normal rats receiving a high-fat diet; settings: daily peritoneal injection, vs untreated rats; cited from earlier work
[7] = Wistar rats, high dose 250 μg/kg BW/day
[8] = high dose 25 μg/100 g BW pellet

N[C@@H](Cc1ccc(Oc2ccc(O)c(I)c2)c(I)c1)C(=O)O [3,3′-T2, 3′,3-diiodothyronine]
Respiratory quotient (RQ) during the day (diurnal period) (Wistar rats [1]): lower than that of placebo | Respiratory quotient (RQ) during the night (Wistar rats [1]): almost the same as those described for rT3 | Food intake immediately after the pellet (Wistar rats [2]; 25 μg/100 g BW pellet, from day 4 until day 7): decrease | Food intake (appetite) (Wistar rats [2]; high dose 25 μg/100 g BW pellet, 21 days, vs placebo): higher value as compared to those of placebo animals | Growth rate (body weight) (Wistar rats [2]; high dose 25 μg/100 g BW, subcutaneous pellet, 21 days, vs placebo): did not show any weight gain | Liver mitochondrial respiratory rate, non-phosphorylating (state 4, oligomycin) (liver mitochondria): much higher as compared to placebo | Liver mitochondrial respiratory rate, phosphorylating (state 3, ADP) (liver mitochondria): very significant increased respiratory rate | Muscle mitochondrial respiration, non-phosphorylating (state 4) (muscle mitochondria): failed to substantially affect | Muscle mitochondrial respiration, phosphorylating (state 3) (muscle mitochondria): failed to substantially affect | Cholesterol plasmatic concentration (Wistar rats [3]; Wistar rats, 250 μg/kg BW/day): significantly lower | Plasma free fatty acids (FFA) (Wistar rats [3]; [7]): higher | Triglycerides plasmatic concentration (Wistar rats [3]; [7]): significantly lower | Fasting glucose plasmatic concentration (Wistar rats [3]; normal (non diabetic) Wistar rats, 250 μg/kg BW/day): slightly increased | Fat mass (Wistar rats [4]; 250 μg/kg BW pellet): significantly decreased | Brown adipose tissue mass (Wistar rats [4]; [8]): significantly increased | Muscle mass (lean body mass) (Wistar rats [4]; [8]): not affected

N[C@@H](Cc1cc(I)c(Oc2ccc(O)c(I)c2)c(I)c1)C(=O)O [T3]
Binding to the nuclear (TH) receptors [5]: binds very efficiently

NC(Cc1cc(I)c(Oc2ccc(O)cc2)c(I)c1)C(=O)O (centres unmarked) [3,5-T2]
Fat deposit [6]: less fat deposit | Weight gain [6]: gained less weight

N[C@@H](Cc1cc(I)c(Oc2cc(I)c(O)c(I)c2)c(I)c1)C(=O)O [T4, thyroxine]
Binding to the nuclear (TH) receptors [5]: binds less efficiently
